For assay [1], the system named is IL-2 stimulated STAT5 phosphorylation on Tyr694 (JAK1/3). Briefly: JAK1/3 cellular target modulation: IL-2 stimulated phospho-STAT5 in PBMC. The class given is cell-based. The conditions noted are these: human PBMC, IL-2 25 ng/ml; read-out: IL2-STAT5 IC50. The method in brief:
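Thawed human PBMC (200,000/well, RPMI/10% FBS) were preincubated with compound for 1 h at 37 °C, added from 10× stocks in 1% DMSO. Stimulation and read-out: IL-2 25 ng/ml, 5 min, pSTAT5 by MSD; IL-12 1.7 ng/ml, 25 min, pSTAT4 by MSD; IFNγ 10 ng/ml, 10 min, pSTAT1 by sandwich ELISA.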

Assay [2] deals with IL-12 stimulated STAT4 phosphorylation on Tyr693 (JAK2/TYK2). Briefly: JAK2/TYK2 cellular target modulation: IL-12 stimulated phospho-STAT4 in PBMC. The class given is cell-based. The conditions noted are these: human PBMC, IL-12 1.7 ng/ml; read-out: IL12-STAT4 IC50. From the text: (§1) JAK Cellular Target Modulation Assays
(§2) Target modulation was based upon the ability of a compound to inhibit JAK isoform specific phosphorylation of selected substrates. IL-2 stimulated STAT5 phosphorylation on Tyr694 was used to assess JAK1/3 compound selectivity. GM-CSF stimulated STAT5 phosphorylation on Tyr694 was used to assess JAK2 compound selectivity. IFNγ stimulated STAT1 phosphorylation on Tyr701 was used to assess JAK1/2 compound selectivity. IL-12 stimulated STAT4 phosphorylation on Tyr693 was used to assess JAK2/TYK2 compound selectivity. For all four assays, human PBMC from frozen stocks were thawed, pelleted, resuspended in complete media (90% RPMI, 10% heat inactivated FBS, 10 mM HEPES, 47 μM 2-ME, pen/strep) and placed in wells of a 96 well V-bottom plate at 200,000 per well in 120 μl complete media. Compounds were added as 15 μl per well of 10× working stock solutions in complete media with 1% DMSO (or medium with 1% DMSO for controls) and placed on a plate shaker in a 37° C. incubator with 5% CO2 for 1 hour with gentle shaking (setting of 3). Stimulation used the addition of soluble cytokines. For the JAK1/3 phospho-STAT5 assay, 15 μl of 10× working stock recombinant human IL-2 was added to a final concentration of 25 ng/ml. For the JAK2 phospho-STAT5 assay, 15 μl of 10× working stock recombinant human GM-CSF was added to a final concentration of 5 ng/ml. For the JAK1/2 phospho-STAT1 assay, 15 μl of 10× working stock of recombinant human IFNγ was added to a final concentration of 10 ng/ml. For the JAK2/TYK2 phospho-STAT4 assay, 15 μl of 10× working stock of recombinant human IL-12 was added to a final concentration of 1.7 ng/ml. Plates were then placed back on the plate shaker in the incubator for an additional 5, 5, 10, and 25 minutes respectively upon which the plates were removed from the incubator, sealed with a plate sealer and the cells pelleted at 400×g for 5 minutes. After pelleting, the media was removed by aspiration and the cells were lysed in assay specific cell lysis buffer. The levels of phospho-STATS were determined using a Phospho (Tyr694) STAT5a,b Whole Cell Lysate kit from Meso Scale Discovery. Levels of phospho-STAT1 were determined using a CST-PathScan Phospho-STAT1 (Tyr701) Sandwich ELISA kit. Levels of phospho-STAT4 were determined using a Phospho-STAT4 (Tyr693) Whole Cell Lysate kit from Meso Scale Discovery.

A further assay has as its target JAK3 (a.a. 781-1124) (Homo sapiens (Human), UniProt P52333). Briefly: JAK3 enzyme activity assay (SRCtide phosphorylation, Caliper). The class given is biochemical. The settings on record: 1 uM ATP; read-out: JAK3 Inhibition IC50.
The target in another assay is JAK2 (Homo sapiens (Human), UniProt O60674). Briefly: JAK2 enzyme activity assay (Thermo Fisher SelectScreen, Z-lyte). The settings on record: read-out: JAK2 Inhibition IC50. The class given is biochemical. An outline of the steps:
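IC50 values derive from a 4-parameter logistic fit of emission ratio across an 11-point series ([…] to 0.34 nM, 2% DMSO vehicle). Reaction: 1 h, 0.12-0.5 ng JAK2, […] Tyr 06 in HEPES pH 7.5 buffer with MgCl2, EGTA, BRIJ-35, read by Z-lyte development.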

The test system of assay [3] is IFNγ stimulated STAT1 phosphorylation on Tyr701 (JAK1/2). Briefly: JAK1/2 cellular target modulation: IFNγ stimulated phospho-STAT1 in PBMC. The class given is cell-based. The settings on record: human PBMC, IFNγ 10 ng/ml; read-out: Infγ-STAT1 IC50.
Source text: as §1, §2

The target in a further assay is JAK1 (Homo sapiens (Human), UniProt P23458). Briefly: JAK1 enzyme activity assay (Thermo Fisher SelectScreen, Z-lyte). The class given is biochemical. The conditions noted are these: read-out: JAK1 Inhibition IC50. An outline of the steps: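 Z-lyte assay with 21.2-91.5 ng JAK and […] Tyr 06 in 50 mM HEPES pH 7.0, 10 mM MgCl2, 1 mM EGTA, 0.01% BRIJ-35; 1 h kinase reaction, then development reagent. 11-point dose-response from […] to 0.34 nM, 2% DMSO vehicle; IC50 from 4-parameter logistic fit of emission ratio.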

The target of the next assay is Tyk-2 (Homo sapiens (Human), UniProt P29597). Briefly: Tyk-2 enzyme activity assay (Thermo Fisher SelectScreen, Z-lyte). The class given is biochemical. The conditions noted are these: read-out: Tyk-2 Inhibition IC50. An outline of the steps: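 Z-lyte FRET assay: 3.75–15 ng TYK2 with […] Tyr 03 peptide in HEPES pH 7.0, MgCl2, EGTA, BRIJ-35; 1 h reaction, then development reagent. 11-point dose-response, 2% DMSO; IC50 via 4-parameter fit of emission ratio, background without enzyme.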

Structures are written as SMILES. Where only a bound is given, the exact number is not on record here.

Tyk-2, sequence (P29597 whole entry): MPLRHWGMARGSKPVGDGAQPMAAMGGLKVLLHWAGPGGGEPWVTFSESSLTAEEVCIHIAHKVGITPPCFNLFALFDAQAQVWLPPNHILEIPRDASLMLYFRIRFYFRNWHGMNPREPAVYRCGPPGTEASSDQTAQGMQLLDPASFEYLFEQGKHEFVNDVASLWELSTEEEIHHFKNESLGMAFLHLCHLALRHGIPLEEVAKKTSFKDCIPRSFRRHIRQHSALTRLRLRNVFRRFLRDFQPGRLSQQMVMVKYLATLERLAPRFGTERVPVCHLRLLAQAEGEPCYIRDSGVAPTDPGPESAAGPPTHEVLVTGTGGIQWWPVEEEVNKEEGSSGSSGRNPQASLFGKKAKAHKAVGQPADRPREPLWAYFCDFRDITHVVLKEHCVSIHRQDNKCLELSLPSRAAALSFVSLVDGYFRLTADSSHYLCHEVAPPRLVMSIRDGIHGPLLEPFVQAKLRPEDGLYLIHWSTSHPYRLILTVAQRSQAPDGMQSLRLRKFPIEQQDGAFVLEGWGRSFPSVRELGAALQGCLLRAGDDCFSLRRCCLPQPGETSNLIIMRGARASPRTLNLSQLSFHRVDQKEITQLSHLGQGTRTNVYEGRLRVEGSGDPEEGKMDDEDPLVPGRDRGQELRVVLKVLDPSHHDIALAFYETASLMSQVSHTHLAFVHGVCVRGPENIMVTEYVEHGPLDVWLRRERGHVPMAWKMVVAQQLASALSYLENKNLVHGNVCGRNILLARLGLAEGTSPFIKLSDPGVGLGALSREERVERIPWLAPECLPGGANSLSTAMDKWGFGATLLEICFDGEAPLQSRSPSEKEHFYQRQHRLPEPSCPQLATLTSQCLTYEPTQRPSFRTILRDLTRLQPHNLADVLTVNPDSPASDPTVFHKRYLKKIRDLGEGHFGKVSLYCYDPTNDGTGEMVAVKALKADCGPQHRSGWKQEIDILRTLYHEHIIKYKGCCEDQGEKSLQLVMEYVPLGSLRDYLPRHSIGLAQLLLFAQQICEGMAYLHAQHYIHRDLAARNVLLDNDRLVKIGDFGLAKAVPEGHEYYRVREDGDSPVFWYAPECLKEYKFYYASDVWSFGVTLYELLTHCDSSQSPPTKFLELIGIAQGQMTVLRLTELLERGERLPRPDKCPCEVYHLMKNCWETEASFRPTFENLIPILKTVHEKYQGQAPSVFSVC
JAK3 (a.a. 781-1124), sequence (P52333 781-1124): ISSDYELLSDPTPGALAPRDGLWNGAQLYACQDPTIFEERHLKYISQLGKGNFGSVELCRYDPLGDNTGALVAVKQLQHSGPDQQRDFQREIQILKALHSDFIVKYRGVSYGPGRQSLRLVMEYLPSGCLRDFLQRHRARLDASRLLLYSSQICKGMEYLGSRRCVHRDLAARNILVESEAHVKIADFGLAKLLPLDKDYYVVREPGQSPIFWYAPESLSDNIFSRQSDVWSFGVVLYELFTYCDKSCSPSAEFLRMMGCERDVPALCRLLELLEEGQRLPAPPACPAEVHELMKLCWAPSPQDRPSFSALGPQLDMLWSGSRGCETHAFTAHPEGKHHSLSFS
JAK2, sequence (O60674 whole entry): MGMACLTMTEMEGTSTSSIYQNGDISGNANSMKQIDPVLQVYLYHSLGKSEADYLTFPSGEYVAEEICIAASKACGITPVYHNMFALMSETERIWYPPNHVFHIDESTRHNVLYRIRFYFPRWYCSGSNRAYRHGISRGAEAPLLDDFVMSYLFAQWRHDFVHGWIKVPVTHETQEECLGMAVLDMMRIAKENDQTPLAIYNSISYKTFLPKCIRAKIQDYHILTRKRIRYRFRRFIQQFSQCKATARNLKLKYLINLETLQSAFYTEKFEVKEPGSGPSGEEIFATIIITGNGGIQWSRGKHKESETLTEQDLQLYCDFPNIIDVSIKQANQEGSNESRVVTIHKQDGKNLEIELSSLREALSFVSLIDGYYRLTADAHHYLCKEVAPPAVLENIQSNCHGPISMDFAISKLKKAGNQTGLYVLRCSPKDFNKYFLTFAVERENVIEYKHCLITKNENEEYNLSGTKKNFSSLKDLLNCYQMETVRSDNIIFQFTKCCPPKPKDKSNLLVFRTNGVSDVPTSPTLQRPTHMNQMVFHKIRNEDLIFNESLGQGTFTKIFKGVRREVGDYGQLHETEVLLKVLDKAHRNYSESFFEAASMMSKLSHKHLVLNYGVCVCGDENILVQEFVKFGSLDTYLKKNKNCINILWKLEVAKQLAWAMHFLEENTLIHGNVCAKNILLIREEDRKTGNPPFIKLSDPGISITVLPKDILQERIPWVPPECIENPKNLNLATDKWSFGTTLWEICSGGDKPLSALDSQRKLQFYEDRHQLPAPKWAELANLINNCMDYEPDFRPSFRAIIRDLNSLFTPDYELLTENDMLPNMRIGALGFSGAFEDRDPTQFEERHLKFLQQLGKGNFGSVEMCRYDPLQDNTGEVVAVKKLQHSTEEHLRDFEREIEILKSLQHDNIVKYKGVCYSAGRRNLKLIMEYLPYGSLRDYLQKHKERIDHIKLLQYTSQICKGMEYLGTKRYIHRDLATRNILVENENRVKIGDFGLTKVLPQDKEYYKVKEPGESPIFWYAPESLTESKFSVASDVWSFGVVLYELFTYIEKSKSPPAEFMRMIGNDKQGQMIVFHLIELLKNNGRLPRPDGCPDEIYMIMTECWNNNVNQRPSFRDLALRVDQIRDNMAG
JAK1, sequence (P23458 whole entry): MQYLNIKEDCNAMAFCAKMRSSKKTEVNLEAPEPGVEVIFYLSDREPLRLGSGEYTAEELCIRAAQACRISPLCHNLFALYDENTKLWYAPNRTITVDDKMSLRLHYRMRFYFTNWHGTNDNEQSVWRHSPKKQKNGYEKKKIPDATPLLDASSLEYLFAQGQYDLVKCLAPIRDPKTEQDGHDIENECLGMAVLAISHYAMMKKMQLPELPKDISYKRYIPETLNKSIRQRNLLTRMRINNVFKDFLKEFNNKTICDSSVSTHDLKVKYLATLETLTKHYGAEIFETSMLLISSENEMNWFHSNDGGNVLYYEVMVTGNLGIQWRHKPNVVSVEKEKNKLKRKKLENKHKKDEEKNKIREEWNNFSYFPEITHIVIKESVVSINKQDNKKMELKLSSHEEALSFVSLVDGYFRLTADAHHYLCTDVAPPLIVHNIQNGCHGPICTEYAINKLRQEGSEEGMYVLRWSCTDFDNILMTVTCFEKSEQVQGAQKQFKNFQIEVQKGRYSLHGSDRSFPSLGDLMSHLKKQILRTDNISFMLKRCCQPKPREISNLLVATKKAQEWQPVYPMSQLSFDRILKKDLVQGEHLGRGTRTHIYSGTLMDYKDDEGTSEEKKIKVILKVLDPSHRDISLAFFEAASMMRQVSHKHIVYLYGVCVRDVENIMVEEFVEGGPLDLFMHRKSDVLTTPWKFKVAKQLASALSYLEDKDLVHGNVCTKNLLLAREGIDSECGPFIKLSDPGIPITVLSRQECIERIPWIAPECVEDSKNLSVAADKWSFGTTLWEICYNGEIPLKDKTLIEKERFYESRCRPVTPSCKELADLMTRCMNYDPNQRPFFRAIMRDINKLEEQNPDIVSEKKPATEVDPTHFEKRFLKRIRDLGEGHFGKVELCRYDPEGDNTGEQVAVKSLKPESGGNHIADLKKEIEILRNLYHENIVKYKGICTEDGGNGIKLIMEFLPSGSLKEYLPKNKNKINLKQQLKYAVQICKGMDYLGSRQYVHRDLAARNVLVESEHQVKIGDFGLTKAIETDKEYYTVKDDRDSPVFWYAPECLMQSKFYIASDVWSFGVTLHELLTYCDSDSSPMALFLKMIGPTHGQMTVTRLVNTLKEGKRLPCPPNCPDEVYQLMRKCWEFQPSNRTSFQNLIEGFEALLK

As to `Cc1cnc(-c2cnc3[nH]ccc3c2N[C@@H]2CCCN(CCC#N)C2)o1` [Example 37, (R)-3-(3-((5-(5-methyloxazol-2-yl)-1H-pyrrolo[2,3-b]pyridin-4-yl)amino)piperidin-1-yl)propanenitrile], the IC50 (in general, the concentration at which inhibition is half-maximal) in assay [1] is no more than 100 nM; in assay [2], greater than 1000 nM; on JAK3 (a.a. 781-1124) it was no more than 10 nM; at JAK2 it was 10 to 100 nM; in assay [3], 100 to 1000 nM; on JAK1, no more than 10 nM. In addition, the IC50 on Tyk-2 lay within 10 to 100 nM.
For the compound `N#CCC(=O)N1CCC[C@@H](Nc2c(-c3ncco3)cnc3[nH]ccc23)C1` [Example 5, (R)-3-(3-((5-(oxazol-2-yl)-1H-pyrrolo[2,3-b]pyridin-4-yl)amino)piperidin-1-yl)-3-oxopropanenitrile], the IC50 in assay [1] is no more than 100 nM; in assay [2], 100 to 1000 nM; at JAK3 (a.a. 781-1124), no more than 10 nM; at JAK2, no more than 10 nM; in assay [3], no more than 100 nM; at JAK1, no more than 10 nM. In addition, the IC50 on Tyk-2 is no more than 10 nM.
On to `CNC(=O)c1coc(-c2cnc3[nH]ccc3c2N[C@@H]2CC[C@H](C)N(C(=O)CC#N)C2)n1` [Example 30, 2-(4-(((3R,6S)-1-(2-cyanoacetyl)-6-methylpiperidin-3-yl)amino)-1H-pyrrolo[2,3-b]pyridin-5-yl)-N-methyloxazole-4-carboxamide], for which the IC50 in assay [1] is 100 to 1000 nM; in assay [2], greater than 1000 nM; at JAK3 (a.a. 781-1124) it was 100 to 1000 nM; at JAK2, no more than 10 nM; in assay [3] it was 100 to 1000 nM; at JAK1 it was no more than 10 nM. In addition, the IC50 on Tyk-2 is no more than 10 nM.
Consider `Cc1cccc(-c2cnc3[nH]ccc3c2N[C@@H]2CCCN(C(=O)CC#N)C2)n1` [Example 20, (R)-3-(3-((5-(6-methylpyridin-2-yl)-1H-pyrrolo[2,3-b]pyridin-4-yl)amino)piperidin-1-yl)-3-oxopropanenitrile], for which the IC50 in assay [1] is no more than 100 nM; in assay [2], greater than 1000 nM; on JAK3 (a.a. 781-1124) it was 10 to 100 nM; on JAK2 it was 10 to 100 nM; in assay [3], 100 to 1000 nM; on JAK1, no more than 10 nM. Also, the IC50 on Tyk-2 lay in the range of 100 to 1000 nM.
For the compound `COc1nccc(-c2cnc3[nH]ccc3c2N[C@@H]2CCCN(C(=O)CC#N)C2)n1` [Example 43, (R)-3-(3-((5-(2-methoxypyrimidin-4-yl)-1H-pyrrolo[2,3-b]pyridin-4-yl)amino)piperidin-1-yl)-3-oxopropanenitrile], the IC50 in assay [1] is no more than 100 nM; in assay [2], greater than 1000 nM; at JAK3 (a.a. 781-1124), 10 to 100 nM; at JAK2, 10 to 100 nM; in assay [3], 100 to 1000 nM; on JAK1 it was no more than 10 nM. The IC50 at Tyk-2 lay within 10 to 100 nM.
Take `C[C@H]1C[C@@H](Nc2c(-c3ccn(C(F)F)n3)cnc3[nH]ccc23)CN(C(=O)CC#N)C1` [Example 40, 3-((3R,5S)-3-((5-(1-(difluoromethyl)-1H-pyrazol-3-yl)-1H-pyrrolo[2,3-b]pyridin-4-yl)amino)-5-methylpiperidin-1-yl)-3-oxopropanenitrile]: the IC50 in assay [1] is no more than 100 nM; in assay [2], no more than 100 nM; on JAK3 (a.a. 781-1124), no more than 10 nM; at JAK2, no more than 10 nM; in assay [3] it was no more than 100 nM; at JAK1 it was no more than 10 nM. In addition, the IC50 on Tyk-2 is no more than 10 nM.
`C[S+]([O-])c1cnc(-c2cnc3[nH]ccc3c2N[C@@H]2CCCN(C(=O)CC#N)C2)s1` (stereo partly drawn) [Example 45, 3-((3R)-3-((5-(5-(methylsulfinyl)thiazol-2-yl)-1H-pyrrolo[2,3-b]pyridin-4-yl)amino)piperidin-1-yl)-3-oxopropanenitrile]: the concentration for half-maximal inhibition (IC50) was 100 to 1000 nM in assay [1]; greater than 1000 nM in assay [2]; no more than 10 nM at JAK3 (a.a. 781-1124); no more than 10 nM at JAK2; 100 to 1000 nM in assay [3]; no more than 10 nM at JAK1. Besides, the IC50 on Tyk-2 was no more than 10 nM.

Values taken from patent US11420966B2 (ACLARIS THERAPEUTICS, INC., priority 2019, dated 2022).
